# From ChEMBL document CHEMBL4339198, “Use of a Conformational-Switching Mechanism to Modulate Exposed Polarity: Discovery of CCR2 Antagonist BMS-741672” (ACS Med Chem Lett, 2019)
# The source made the active and inactive calls. The calls are words filed in the database; no cut-off is given here.
# Columns and labels:
# [1] = Permeability of the compound at pH 7.4 by PAMPA; format: ADME; conditions: read-out: permeability
# [2] = target: T1, hERG (KCNH2) (Homo sapiens, UniProt Q12809); experiment: in vitro
# Description: Inhibition of human ERG at 10 uM by manual patch-clamp assay relative to control
# [3] = Stability in human liver microsomes assessed as parent compound remaining at 3 uM measured after 10 mins; format: ADME, Microsome; conditions: read-out: Stability
# [4] = target: T2, C-C chemokine receptor type 5 (Homo sapiens, UniProt P51681)
# Description: Antagonist activity at CCR5 (unknown origin) expressed in human HT1080 cells assessed as blockade of MIP1beta-binding to receptor
# [5] = Clearance in iv dosed mouse; format: ADME, organism-based; conditions: in vivo
# [6] = target: C-C chemokine receptor type 2 (Homo sapiens, UniProt P41597)
# Description: Displacement of [125I]MCP1 from CCR2 in human PBMC measured after 30 mins
# [7] = Drug metabolism in human liver microsomes assessed as rate of disappearance at 3 uM; format: ADME, Microsome
# [8] = Oral bioavailability in mouse; format: ADME, organism-based; conditions: in vivo
# [9] = Toxicity in rat measured after 14 days; conditions: in vivo, 336 h
# [10] = Half life in iv dosed rat; conditions: in vivo
# [11] = Toxicity in rat administered as single dose; conditions: in vivo
# [12] = system: Cynomolgus monkey; experiment: In vivo antagonist activity at CCR2 in po dosed cynomolgus monkey assessed as inhibition of MCP1-induced chemotaxis administered once daily for three days followed by MCP1 stimulation and measured after 18 hrs; format: functional, organism-based; conditions: Macaca fascicularis
# [13] = Cardiotoxicity in telemetered monkey assessed as changes in QTc interval at 30 mg/kg; format: toxicity, organism-based, Macaca mulatta; conditions: rhesus monkey, in vivo
# [14] = target: T2, C-C chemokine receptor type 5; experiment: Binding affinity to CCR5 in T-cell (unknown origin)
# [15] = system: Mus musculus; experiment: Protection against C57BL/6-SVJ12 mouse model of thioglycollate-induced peritonitis administered orally 1 hr prior to thioglycollate-stimulation for 48 hrs and subsequent bid dosing for 3 days following 1 hr thioglycollate-stimulation measured by Wright-Giemsa Staining based flow cytometry; format: functional, organism-based
# [16] = Half life in iv dosed cynomolgus monkey; conditions: in vivo
# [17] = Toxicity in monkey administered as single dose; set-up: species or system Macaca mulatta; conditions: rhesus monkey, in vivo
# [18] = Oral bioavailability in cynomolgus monkey; conditions: in vivo
# [19] = target: T1, hERG (KCNH2); experiment: Inhibition of human ERG at 30 uM by manual patch-clamp assay relative to control
# T1 sequence (Q12809 whole entry): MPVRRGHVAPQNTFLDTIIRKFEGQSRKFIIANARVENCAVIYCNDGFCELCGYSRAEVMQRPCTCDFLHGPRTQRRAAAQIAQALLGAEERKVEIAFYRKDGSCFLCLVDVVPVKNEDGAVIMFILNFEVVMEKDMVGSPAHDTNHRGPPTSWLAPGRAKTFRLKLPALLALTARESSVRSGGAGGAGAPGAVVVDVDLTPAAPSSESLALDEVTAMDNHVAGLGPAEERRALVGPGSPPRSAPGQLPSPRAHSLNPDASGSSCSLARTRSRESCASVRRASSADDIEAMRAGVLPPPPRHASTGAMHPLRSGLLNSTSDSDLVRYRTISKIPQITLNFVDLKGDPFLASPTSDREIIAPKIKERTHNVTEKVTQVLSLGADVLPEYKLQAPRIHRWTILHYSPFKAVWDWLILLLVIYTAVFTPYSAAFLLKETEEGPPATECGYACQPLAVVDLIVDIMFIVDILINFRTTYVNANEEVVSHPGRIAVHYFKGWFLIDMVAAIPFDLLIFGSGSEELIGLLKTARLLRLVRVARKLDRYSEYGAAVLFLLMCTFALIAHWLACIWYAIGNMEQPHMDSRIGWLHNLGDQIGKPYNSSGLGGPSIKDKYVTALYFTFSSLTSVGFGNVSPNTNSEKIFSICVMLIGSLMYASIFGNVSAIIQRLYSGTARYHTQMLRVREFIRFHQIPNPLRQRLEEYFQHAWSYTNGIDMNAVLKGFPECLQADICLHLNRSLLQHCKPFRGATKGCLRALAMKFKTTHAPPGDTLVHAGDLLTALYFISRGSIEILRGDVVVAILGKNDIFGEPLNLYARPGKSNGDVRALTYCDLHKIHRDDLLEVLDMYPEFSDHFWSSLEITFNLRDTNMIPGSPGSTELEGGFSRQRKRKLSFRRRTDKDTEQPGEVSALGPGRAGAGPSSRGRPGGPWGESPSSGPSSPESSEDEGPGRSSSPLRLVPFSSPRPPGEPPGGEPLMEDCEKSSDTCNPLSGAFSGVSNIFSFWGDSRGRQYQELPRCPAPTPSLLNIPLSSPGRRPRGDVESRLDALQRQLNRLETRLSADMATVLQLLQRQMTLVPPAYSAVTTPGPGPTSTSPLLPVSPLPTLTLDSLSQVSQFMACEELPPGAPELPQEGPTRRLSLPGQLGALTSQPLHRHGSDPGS
# T2 sequence (P51681 whole entry): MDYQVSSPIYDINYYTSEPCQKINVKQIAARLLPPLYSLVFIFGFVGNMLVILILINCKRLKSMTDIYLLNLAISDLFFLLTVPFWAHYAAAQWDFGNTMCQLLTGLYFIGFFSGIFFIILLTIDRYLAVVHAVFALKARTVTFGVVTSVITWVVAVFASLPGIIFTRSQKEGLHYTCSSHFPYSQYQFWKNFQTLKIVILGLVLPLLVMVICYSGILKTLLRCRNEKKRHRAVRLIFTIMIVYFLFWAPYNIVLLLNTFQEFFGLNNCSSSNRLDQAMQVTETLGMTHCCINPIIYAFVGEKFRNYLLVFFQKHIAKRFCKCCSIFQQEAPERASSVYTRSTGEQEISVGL
# Sequence of C-C chemokine receptor type 2 (P41597 whole entry): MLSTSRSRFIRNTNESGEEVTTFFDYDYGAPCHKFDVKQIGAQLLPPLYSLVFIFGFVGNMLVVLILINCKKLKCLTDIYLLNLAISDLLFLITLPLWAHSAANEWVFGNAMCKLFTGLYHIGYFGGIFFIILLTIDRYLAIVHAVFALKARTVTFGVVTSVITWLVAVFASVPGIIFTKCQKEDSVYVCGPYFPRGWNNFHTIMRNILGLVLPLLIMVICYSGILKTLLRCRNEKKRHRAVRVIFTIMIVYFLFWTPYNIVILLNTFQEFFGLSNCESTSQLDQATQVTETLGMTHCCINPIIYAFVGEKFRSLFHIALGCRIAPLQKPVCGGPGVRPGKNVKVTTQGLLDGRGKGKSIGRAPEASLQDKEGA
structure (smiles),measurement,setting,value
CC(C)N(C)[C@@H]1CC[C@H](N2CC[C@H](NC(=O)c3cccc(C(F)(F)F)c3)C2=O)[C@H](N(C)S(C)(=O)=O)C1,Papp,[1],6.5 ×10⁻⁶ cm/s
same,inhibition at 10 µM,[2],7%
same,"remaining at 10 min, 3 µM",[3],100%
same,IC50,[4],1570 nM
same,clearance,[5],67 mL/min/kg
same,IC50,[6],1.4 nM
same,Drug metabolism,[7],0 nmol/min
same,bioavailability,[8],11%
CC(=O)N[C@@H]1C[C@H](N(C)C(C)C)CC[C@@H]1N1CC[C@H](Nc2ncnc3ccc(C(F)(F)F)cc23)C1=O,Activity,[9],Non-Toxic
same,inhibition at 10 µM,[2],33%
same,half-life,[10],306 min
same,Activity,[11],Non-Toxic
same,inhibition,[12],Active
same,"remaining at 10 min, 3 µM",[3],95%
same,Activity,[13],Non-Toxic
same,IC50,[4],780 nM
same,Kd,[14],23.6 nM
same,clearance,[5],38 mL/min/kg
same,Activity,[15],Active
same,half-life,[16],192 min
same,Drug metabolism,[7],0.01 nmol/min
same,Activity,[17],Non-Toxic
same,bioavailability,[18],46%
same,bioavailability,[8],28%
CC(C)N(C)[C@@H]1CC[C@H](N2CC[C@H](Nc3ncnc4ccc(C(F)(F)F)cc34)C2=O)[C@H](NS(C)(=O)=O)C1 [BMS-741672],Papp,[1],39.4 ×10⁻⁶ cm/s
same,inhibition at 10 µM,[2],74%
same,"remaining at 10 min, 3 µM",[3],58%
same,IC50,[4],287 nM
same,IC50,[6],0.4 nM
same,Drug metabolism,[7],0.13 nmol/min
CC(C)N(C)[C@@H]1CC[C@H](N2CC[C@H](Nc3ncnc4ccc(C(F)(F)F)cc34)C2=O)[C@H](CS(C)(=O)=O)C1,Papp,[1],1.4 ×10⁻⁶ cm/s
same,"remaining at 10 min, 3 µM",[3],99%
same,IC50,[4],190 nM
same,IC50,[6],0.9 nM
same,Drug metabolism,[7],0 nmol/min
same,inhibition at 30 µM,[19],16%
CC(C)N(C)[C@@H]1CC[C@H](N2CC[C@H](NC(=O)c3cccc(C(F)(F)F)c3)C2=O)[C@H](NS(C)(=O)=O)C1,Papp,[1],59.3 ×10⁻⁶ cm/s
same,"remaining at 10 min, 3 µM",[3],85%
same,IC50,[4],3470 nM
same,clearance,[5],258 mL/min/kg
same,IC50,[6],1.9 nM
same,Drug metabolism,[7],0.05 nmol/min
same,bioavailability,[8],35%
CC(C)N(C)[C@@H]1CC[C@H](N2CC[C@H](NC(=O)c3cccc(C(F)(F)F)c3)C2=O)[C@H](CS(C)(=O)=O)C1,Papp,[1],9.4 ×10⁻⁶ cm/s
same,"remaining at 10 min, 3 µM",[3],100%
same,IC50,[4],1640 nM
same,clearance,[5],70 mL/min/kg
same,Drug metabolism,[7],0 nmol/min
CCC[C@@H]1C[C@H](N(C)C(C)C)CC[C@@H]1N1CC[C@H](Nc2ncnc3ccc(C(F)(F)F)cc23)C1=O,Papp,[1],52.9 ×10⁻⁶ cm/s
same,"remaining at 10 min, 3 µM",[3],100%
same,Drug metabolism,[7],0 nmol/min
